Experimental data as given in patent US20260250320A1, “LIPIDATED PEPTIDE INHIBITORS OF INTERLEUKIN-23 RECEPTOR” (Janssen Pharmaceutica NV, priority 2023, published 2026).
*1 amine or outer side, *2 acyl side, *3 side chain or, on linkers, in order; H or OH if unused. Where a SMILES comes first, the peptide text is derived from it. Bridges are numbered along the chain shown (N, C = ends). Side-chain parts run from the residue outwards. [ ]: non-standard residue; d: D form. The star is where a group is joined. X38 = O=C(O)CCCCCCCCCCCCCCCCC(=O)N[C@@H](CCC(=O)NCCOCCOCC(=O)NCCOCCCCC(=O)*)C(=O)O; PEG12 = NCCOCCOCCOCCOCCOCCOCCOCCOCCOCCOCCOCCOCCC(=O)O; CH2CH2OCH2CH2OCH2CH2NMe3+ = C[N+](C)(C)CCOCCOCC*; Trp(7-Me) = Cc1cccc2c(C[C@H](N)C(=O)O)c[nH]c12; C18 diacid = O=C(O)CCCCCCCCCCCCCCCCC(=O)*; X20 = CC(=O)CCCCC[C@H](N[*:1])C(=O)[*:2]; γGlu = O=C(O)[C@H](CCC(=O)[*:2])N[*:1]; 2Nal = N[C@@H](Cc1ccc2ccccc2c1)C(=O)O; AEF = NCCOc1ccc(C[C@H](N)C(=O)O)cc1; X26 = C[N+](C)(CCN[*:1])CC(=O)[*:2]; X2 = C[N+](C)(C)C[C@@H](CC(=O)O)N*; 3Pal = N[C@@H](Cc1cccnc1)C(=O)O; Lys(Me) = CNCCCC[C@H](N)C(=O)O; Pen = CC(C)(S)[C@H](N)C(=O)O; Suc = O=C(CCC(=O)[*:2])[*:1]; Thp = NC1(C(=O)O)CCOCC1; X1 = C[N+](C)(C)CCCCC*; AEEA = NCCOCCOCC(=O)O; Sar = CNCC(=O)O

How the values were obtained:
IL-23R = biological target: T1, IL-23R (Homo sapiens, UniProt Q5VWK5); experiment: IL23R Reporter Assay; assay type: cell-based; conditions: HEK293 cells containing IL-23R, IL-12Rβ1 and STAT-inducible firefly luciferase reporter; 10 ng/mL IL-23 (EC90); 5 h
T1 construct: HEK293 cells containing IL-23R, IL-12Rβ1 and a firefly luciferase reporter gene driven by a STAT-inducible promoter (Promega); host or cells: HEK293
T1 sequence (Q5VWK5 24-629): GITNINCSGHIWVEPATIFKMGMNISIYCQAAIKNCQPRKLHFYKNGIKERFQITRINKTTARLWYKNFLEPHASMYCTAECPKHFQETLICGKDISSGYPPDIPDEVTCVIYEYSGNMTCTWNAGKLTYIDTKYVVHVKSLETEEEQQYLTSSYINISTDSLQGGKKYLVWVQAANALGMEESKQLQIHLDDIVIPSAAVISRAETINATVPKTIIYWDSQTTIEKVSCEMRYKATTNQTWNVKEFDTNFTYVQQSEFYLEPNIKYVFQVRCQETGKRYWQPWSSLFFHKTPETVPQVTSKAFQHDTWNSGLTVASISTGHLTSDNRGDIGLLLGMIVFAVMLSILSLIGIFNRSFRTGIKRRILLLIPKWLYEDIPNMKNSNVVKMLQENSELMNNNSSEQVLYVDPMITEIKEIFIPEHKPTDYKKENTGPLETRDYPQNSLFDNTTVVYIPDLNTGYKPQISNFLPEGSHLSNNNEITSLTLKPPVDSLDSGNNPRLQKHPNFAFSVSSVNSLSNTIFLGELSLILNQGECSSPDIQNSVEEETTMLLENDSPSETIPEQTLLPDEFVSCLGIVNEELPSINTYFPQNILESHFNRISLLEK
In short: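 IC50 values were fitted with a 4-parameter Hill equation to luciferase signal, scaled between IL-23-only wells (0% inhibition) and 30 μM reference inhibitor (100%). The readout was a STAT-inducible reporter in IL-23R/IL-12Rβ1 HEK293 cells, stimulated with added 10 ng/mL IL-23 (EC90) for 5 h at 37° C and developed with BioGlo.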

[1] = tested on: IL-23-stimulated phosphorylated STAT3 in peripheral blood mononuclear cells (PBMCs); experiment: PBMC pSTAT3 Assay; assay type: cell-based; conditions: PBMCs from healthy donors; 30 min preincubation with peptide; IL-23 5 ng/mL for 30 min; phospho-STAT3 by MSD
In short: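 Phospho-STAT3 quantified by Meso Scale assay in lysates of PBMCs exposed to IL-23 (5 ng/mL, 30 min, 37 °C) after 30 min peptide pretreatment. Cells were cryopreserved donor PBMCs activated 4 days with anti-CD3 plus IL-1β (100 ng/mL) and starved ~4 h; IC50 reported.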

| SMILES | IC50 (IL-23R) | IC50 [1] |
| --- | --- | --- |
| CC(=O)N[C@H](CCCNC(=N)N)C(=O)N[C@@H]1C(=O)N[C@@H](CC(N)=O)C(=O)N[C@@H]([C@@H](C)O)C(=O)N[C@@H](Cc2c[nH]c3c(C)cccc23)C(=O)N[C@@H](CCCCNC(=O)CCC(=O)N[C@H](CC(=O)O)C[N+](C)(C)C)C(=O)N[C@H](C(=O)N[C@@H](Cc2ccc(OCCN)cc2)C(=O)N[C@@H](Cc2ccc3ccccc3c2)C(=O)NC2(C(=O)N[C@@H](CCCCNC(=O)COCCOCCNC(=O)COCCOCCNC(=O)CC[C@H](NC(=O)CCCCCCCCCCCCCCCCC(=O)O)C(=O)O)C(=O)N[C@@H](CC(N)=O)C(=O)N[C@@H](Cc3cccnc3)C(=O)N(C)CC(N)=O)CCOCC2)C(C)(C)SSC1(C)C [compound 48, MeCO-r-Pen(3)-N-T-7MeW-K(d)-Pen(3)-AEF-2Nal-THP-K(PEG2PEG2gEC18OH)-N-3Pya-Sar-CONH2] (Ac-[dR][Pen]NT[Trp(7-Me)]K([Suc-X2])[Pen][AEF][2Nal][Thp]K([AEEA-AEEA-γGlu-C18 diacid])N[3Pal][Sar]-NH2; disulfide 2-7) | 50 to 500 nM | < 0.5 nM |
| CC(=O)N[C@@H](CCCCNC(=O)CCCCOCCNC(=O)COCCOCCNC(=O)CC[C@H](NC(=O)CCCCCCCCCCCCCCCCC(=O)O)C(=O)O)C(=O)N[C@@H]1C(=O)N[C@@H](CC(=O)N(C)C)C(=O)N[C@@H]([C@@H](C)O)C(=O)N[C@@H](Cc2c[nH]c3c(C)cccc23)C(=O)N[C@@H](CCCCN(C)C(C)=O)C(=O)N[C@H](C(=O)N[C@@H](Cc2ccc(OCCCCC[N+](C)(C)C)cc2)C(=O)N[C@@H](Cc2ccc3ccccc3c2)C(=O)NC2(C(=O)N[C@@H](CCCCN(C)C(C)=O)C(=O)N[C@@H](CC(N)=O)C(=O)N[C@@H](Cc3cccnc3)C(=O)N(C)CC(N)=O)CCOCC2)C(C)(C)SSC1(C)C [compound 63, MeCO-K(PEG2PEG2gEC18OH)-Pen(3)-N(N(Me)2)-T-7MeW-K(NMeAc)-Pen(3)-TMAPF-2Nal-THP-K(NMeAc)-N-3Pya-Sar-CONH2] (Ac-K(X38)[Pen]D(NMe2)T[Trp(7-Me)][Lys(Me)](Ac)[Pen]Y(X1)[2Nal][Thp][Lys(Me)](Ac)N[3Pal][Sar]-NH2; disulfide 2-7) | ≥ 500 nM | ≥ 5 nM |
| CC(=O)N(C)CCCC[C@@H]1NC(=O)[C@H](Cc2c[nH]c3c(C)cccc23)NC(=O)[C@H]([C@@H](C)O)NC(=O)[C@H](CC(=O)N(C)C)NC(=O)[C@@H](NC(=O)COCCOCCNC(=O)C[N+](C)(C)CCNC(=O)COCCOCCNC(=O)CC[C@H](NC(=O)CCCCCCCCCCCCCCCCC(=O)O)C(=O)O)C(C)(C)SSC(C)(C)[C@@H](C(=O)N[C@@H](Cc2ccc(OCCOCCOCC[N+](C)(C)C)cc2)C(=O)N[C@@H](Cc2ccc3ccccc3c2)C(=O)NC2(C(=O)N[C@@H](CCCCN(C)C(C)=O)C(=O)N[C@@H](CC(N)=O)C(=O)N[C@@H](Cc3cccnc3)C(=O)N(C)CC(=O)N(C)C)CCOCC2)NC1=O [compound 89, HOC18gEPEG2SP6PEG2CO-Pen(3)-N(N(Me)2)-T-7MeW-K(NMeAc)-Pen(3)-APEG3F-2Nal-THP-K(NMeAc)-N-3Pya-Sar-CON(Me)2] ({C18 diacid-γGlu-AEEA}-[X26][AEEA][Pen]D(NMe2)T[Trp(7-Me)][Lys(Me)](Ac)[Pen]Y(CH2CH2OCH2CH2OCH2CH2NMe3+)[2Nal][Thp][Lys(Me)](Ac)N[3Pal][Sar]-NMe2; disulfide 3-8) | < 50 nM | < 0.5 nM |

Now from value to compound, other results behind:

| IC50 (IL-23R) | SMILES | IC50 [1] |
| --- | --- | --- |
| < 50 nM | CC(=O)CCCCC[C@@H]1NC(=O)[C@H](Cc2c[nH]c3c(C)cccc23)NC(=O)[C@H]([C@@H](C)O)NC(=O)[C@H](CC(N)=O)NC(=O)[C@@H](NC(C)=O)C(C)(C)SSC(C)(C)[C@@H](C(=O)N[C@@H](Cc2ccc(OCCN)cc2)C(=O)N[C@@H](CCC(=O)O)C(=O)N[C@@H](CC(N)=O)C(=O)N[C@@H](Cc2cccnc2)C(=O)N(C)CC(=O)N[C@@H](CCCCNC(=O)CCOCCOCCOCCOCCOCCOCCOCCOCCOCCOCCOCCOCCNC(=O)CC[C@H](NC(=O)CCCCCCCCCCCCCCCCC(=O)O)C(=O)O)C(N)=O)NC1=O [compound 161, MeCO-Pen(3)-N-T-7MeW-K(Ac)-Pen(3)-AEF-2Nal-THP-E-N-3Pya-Sar-K(PEG12gEC18OH)-CONH2] (Ac-[Pen]NT[Trp(7-Me)][X20][Pen][AEF]EN[3Pal][Sar]K([PEG12-γGlu-C18 diacid])-NH2; disulfide 1-6) | < 0.5 nM |
| < 50 nM | CC(=O)NCCCC[C@@H]1NC(=O)[C@H](Cc2c[nH]c3c(C)cccc23)NC(=O)[C@H]([C@@H](C)O)NC(=O)[C@H](CC(N)=O)NC(=O)[C@@H](NC(=O)CCOCCOCC[N+](C)(C)C)C(C)(C)SSC(C)(C)[C@@H](C(=O)N[C@@H](Cc2ccc(OCCCCC[N+](C)(C)C)cc2)C(=O)N[C@@H](Cc2ccc3ccccc3c2)C(=O)NC2(C(=O)N[C@@H](CCCCNC(=O)COCCOCCNC(=O)COCCOCCNC(=O)CC[C@H](NC(=O)CCCCCCCCCCCCCCCCCCC(=O)O)C(=O)O)C(=O)N[C@@H](N)C(=O)N[C@@H](Cc3ccccn3)C(=O)N(C)CC(N)=O)CCOCC2)NC1=O [compound 126, cPEG3aCO-Pen(3)-N(N(Me)2)-T-7MeW-K(NMeAc)-Pen(3)-TMAPF-2Nal-THP-K(PEG2PEG2gEC20OH)-N-3Pya-Sar-CON(Me)2] | < 0.5 nM |
| < 50 nM | Cc1cccc2c(C[C@@H]3NC(=O)[C@H]([C@@H](C)O)NC(=O)[C@H](CC(N)=O)NC(=O)[C@@H](NC(=O)[C@@H](CCCNC(=N)N)CC(=O)COCCOCCNC(=O)COCCOCCNC(=O)CC[C@H](NC(=O)CCCCCCCCCCCCCCCCC(=O)O)C(=O)O)C(C)(C)SSC(C)(C)[C@@H](C(=O)N[C@@H](Cc4ccc(OCCN)cc4)C(=O)N[C@@H](Cc4ccc5ccccc5c4)C(=O)NC4(C(=O)N[C@@H](CCC(=O)O)C(=O)N[C@@H](CC(N)=O)C(=O)N[C@@H](Cc5cccnc5)C(=O)N(C)CC(N)=O)CCOCC4)NC(=O)[C@H](CCCCN(C)C(=O)CCCCCOCC[N+](C)(C)C)NC3=O)c[nH]c12 [compound 84, HOC18gEPEG2PEG2CO-r-Pen(3)-N-T-7MeW-K(NMecPEG3a)-Pen(3)-AEF-2Nal-THP-E-N-3Pya-Sar-CONH2] | < 0.5 nM |
| < 50 nM | CC(=O)N(C)CCCC[C@H](CC(=O)C1(NC(=O)[C@H](Cc2ccc3ccccc3c2)NC(=O)[C@H](Cc2ccc(OCCNC(=O)C[N+](C)(C)CCNC(=O)COCCOCCNC(=O)COCCOCCNC(=O)CC[C@H](NC(=O)CCCCCCCCCCCCCCCCC(=O)O)C(=O)O)cc2)NC(=O)[C@@H]2CCCCC(C)[C@H](NC(=O)CCOCCOCC[N+](C)(C)C)C(=O)N[C@@H](CC(=O)N(C)C)N[C@@H]([C@@H](C)O)C(=O)N[C@@H](Cc3c[nH]c4c(C)cccc34)C(=O)N[C@@H](CCCCN(C)C(C)=O)C(=O)N2)CCOCC1)C(=O)C[C@@H](CC(N)=O)C(=O)N[C@@H](Cc1cccnc1)C(=O)N(C)CC(=O)N(C)C (stereo partly drawn) [compound 154, cPEG3aCO-Pen(3)-N(N(Me)2)-T-7MeW-K(NMeAc)-Pen(3)-AEF(SP6PEG2PEG2gEC18OH)-2Nal-THP-K(NMeAc)-N-3Pya-Sar-CON(Me)2] | < 0.5 nM |
